Results taken from patent publication US12661410B2, “Compounds for targeted degradation of RET” (C4 Therapeutics, Inc., priority 2020, dated 2026).
Substitutions are numbered along the chain they refer to. Like-named read-outs stand apart in the source and are kept apart here.

Columns and labels:
RET (658-1114) = molecular target: T1, RET (658-1114) (Homo sapiens, UniProt P07949); assay: HiBiT-Degradation, RET wild-type degradation assay (Nano-Glo HiBiT Lytic), 293T.144 cells; assay type: cell-based; settings: for DC50 / Emax: 6.0 hours
T1 construct: 658-1114; expressed in transfected cells; host or cells: 293T.144 (293T cells, generated in-house)
T1 sequence (P07949 658-1114): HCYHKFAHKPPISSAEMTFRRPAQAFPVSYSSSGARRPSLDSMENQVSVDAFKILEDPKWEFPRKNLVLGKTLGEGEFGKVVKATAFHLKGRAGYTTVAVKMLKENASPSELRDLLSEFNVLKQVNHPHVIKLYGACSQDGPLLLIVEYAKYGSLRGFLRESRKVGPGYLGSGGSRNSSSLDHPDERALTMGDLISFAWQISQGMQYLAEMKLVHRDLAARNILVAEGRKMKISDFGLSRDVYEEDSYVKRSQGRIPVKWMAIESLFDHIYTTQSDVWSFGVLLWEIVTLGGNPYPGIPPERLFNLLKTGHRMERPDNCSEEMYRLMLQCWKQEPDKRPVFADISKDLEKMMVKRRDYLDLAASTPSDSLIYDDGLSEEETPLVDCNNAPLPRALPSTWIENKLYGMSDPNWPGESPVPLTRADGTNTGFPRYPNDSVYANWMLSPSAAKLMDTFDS
How it was run: (§1)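 Degradation quantified by HiBiT lytic luminescence in 293T cells expressing tagged WT or G810R RET kinase domain after 6 h dosing up to 10 μM; DC50 and Emax fitted.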

RET(KD: 658-1114 G810R) = molecular target: T2, RET(KD: 658-1114 G810R) (Homo sapiens, UniProt P07949, G810R); assay: HiBiT-Degradation, RET G810R degradation assay (Nano-Glo HiBiT Lytic), 293T.165 cells; assay type: cell-based; settings: for Emax / DC50: 6.0 hours
T2 construct: 658-1114; expressed in transfected cells; host or cells: 293T.165 (293T cells, generated in-house)
T2 sequence (P07949 658-1114 G810R): T1 sequence (P07949 658-1114) with G153R
How it was run: as §1

[1] = % remaining protein, read-out: 293T.165 RET(KD: 658-1114 G810R) 6.0 hours (Emax)
[2] = half-maximal degradation concentration, read-out: 293T.165 RET(KD: 658-1114 G810R) 6.0 hours (DC50)
[3] = % remaining protein, read-out: 293T.144 RET (658-1114) 6.0 hours (Emax)
[4] = half-maximal degradation concentration, read-out: 293T.144 RET (658-1114) 6.0 hours (DC50)

Row | HiBiT-Degradation 293T.144 RET (658-1114) 6.0 hours (IP) [nM] (RET (658-1114); RET wild-type) | DC50 (RET (658-1114); RET wild-type, read-out: HiBiT-Degradation 293T.144 RET (658-1114) 6.0 hours (DC50)) | Emax (RET (658-1114); RET wild-type, read-out: HiBiT-Degradation 293T.144 RET (658-1114) 6.0 hours (Emax)) | Emax (RET(KD: 658-1114 G810R); [1]) | DC50 (RET(KD: 658-1114 G810R); [2]) | HiBiT-Degradation 293T.165 RET(KD: 658-1114 G810R) 6.0 hours (IP) [nM] (RET(KD: 658-1114 G810R); RET G810R) | DC50 (RET(KD: 658-1114 G810R); RET G810R, read-out: HiBiT-Degradation 293T.165 RET(KD: 658-1114 G810R) 6.0 hours (DC50)) | Emax (RET(KD: 658-1114 G810R); RET G810R, read-out: HiBiT-Degradation 293T.165 RET(KD: 658-1114 G810R) 6.0 hours (Emax)) | Structure (SMILES) | 293T.144 RET (658-1114) 6.0 hours (IP) [nM] (RET (658-1114)) | Emax (RET (658-1114); [3]) | DC50 (RET (658-1114); [4]) | 293T.165 RET(KD: 658-1114 G810R) 6.0 hours (IP) [nM] (RET(KD: 658-1114 G810R))
1 | ++++ (< 50 nM = ++++) | < 0.05 µM | < 30% | < 30% | < 0.05 µM | ++++ (< 50 nM = ++++) | < 0.05 µM | < 30% | N#Cc1cnn2cc(-c3ccc(N4CCN(C(=O)CN5CCC(c6ccc(NC7CCC(=O)NC7=O)cc6)CC5)CC4)cc3)cc(-c3ccc(N4CCN(C(=O)Cc5ccc(F)cn5)CC4)nc3)c12 (centres unmarked) [Compound 74, 6-[4-[4-[2-[4-[4-[(2,6-dioxo-3-piperidyl)amino]phenyl]-1-piperidyl]acetyl]piperazin-1-yl]phenyl]-4-[6-[4-[2-(5-fluoro-2-pyridyl)acetyl]piperazin-1-yl]-3-pyridyl]pyrazolo[1,5-a]pyridine-3-carbonitrile] |  |  |  | 
2 |  |  |  | < 50% | < 0.1 µM |  |  |  | CCC1(C(=O)NC(C)C)CCN(c2ccc(-c3nc(-c4cnn(C5CCN(C(=O)CC6(O)CCN(c7ccc(NC8CCC(=O)NC8=O)cc7C(F)F)CC6)CC5)c4)cn4ncc(C#N)c34)cn2)CC1 (centres unmarked) [Compound 96, 1-[5-[3-cyano-6-[1-[1-[2-[1-[2-(difluoromethyl)-4-[(2,6-dioxo-3-piperidyl)amino]phenyl]-4-hydroxy-4-piperidyl]acetyl]-4-piperidyl]pyrazol-4-yl]pyrazolo[1,5-a]pyrazin-4-yl]-2-pyridyl]-4-ethyl-N-isopropyl-piperidine-4-carboxamide] | ++++ (<50 nM = ++++) | < 30% | < 0.05 µM | +++ (<100 nM = +++)

The next lines start with the compound.

Row | Structure (SMILES) | HiBiT-Degradation 293T.144 RET (658-1114) 6.0 hours (IP) [nM] (RET (658-1114); RET wild-type) | DC50 (RET (658-1114); RET wild-type, read-out: HiBiT-Degradation 293T.144 RET (658-1114) 6.0 hours (DC50)) | Emax (RET (658-1114); RET wild-type, read-out: HiBiT-Degradation 293T.144 RET (658-1114) 6.0 hours (Emax)) | Emax (RET(KD: 658-1114 G810R); [1]) | DC50 (RET(KD: 658-1114 G810R); [2]) | HiBiT-Degradation 293T.165 RET(KD: 658-1114 G810R) 6.0 hours (IP) [nM] (RET(KD: 658-1114 G810R); RET G810R) | DC50 (RET(KD: 658-1114 G810R); RET G810R, read-out: HiBiT-Degradation 293T.165 RET(KD: 658-1114 G810R) 6.0 hours (DC50)) | Emax (RET(KD: 658-1114 G810R); RET G810R, read-out: HiBiT-Degradation 293T.165 RET(KD: 658-1114 G810R) 6.0 hours (Emax)) | 293T.144 RET (658-1114) 6.0 hours (IP) [nM] (RET (658-1114)) | Emax (RET (658-1114); [3]) | DC50 (RET (658-1114); [4]) | 293T.165 RET(KD: 658-1114 G810R) 6.0 hours (IP) [nM] (RET(KD: 658-1114 G810R))
3 | CCC1(C(=O)NC(C)C)CCN(c2ncc(-c3nc(-c4cnn(C5CCN(C(=O)CC6(O)CCN(c7ccc(NC8CCC(=O)NC8=O)cc7Cl)CC6)CC5)c4)cn4ncc(C#N)c34)cc2F)CC1 (centres unmarked) [Compound 120, 1-[5-[6-[1-[1-[2-[1-[2-chloro-4-[(2,6-dioxo-3-piperidyl)amino]phenyl]-4-hydroxy-4-piperidyl]acetyl]-4-piperidyl]pyrazol-4-yl]-3-cyano-pyrazolo[1,5-a]pyrazin-4-yl]-3-fluoro-2-pyridyl]-4-ethyl-N-isopropyl-piperidine-4-carboxamide] |  |  |  | < 50% | < 0.1 µM |  |  |  | ++++ (<50 nM = ++++) | < 30% | < 0.05 µM | ++++ (<50 nM = ++++)
4 | COc1cc(N2CCN([C@H]3CC[C@H](n4cc(-c5cn6ncc(C#N)c6c(-c6ccc(N7C[C@H]8COC[C@@H](C7)N8Cc7ccc(F)cc7)nc6)n5)cn4)CC3)CC2)c(F)cc1NC1CCC(=O)NC1=O (relative stereo) [Compound 164, 6-[1-[4-[4-[4-[(2,6-dioxo-3-piperidyl)amino]-2-fluoro-5-methoxy-phenyl]piperazin-1-yl]cyclohexyl]pyrazol-4-yl]-4-[6-[(1R,5S)-9-[(4-fluorophenyl)methyl]-3-oxa-7,9-diazabicyclo[3.3.1]nonan-7-yl]-3-pyridyl]pyrazolo[1,5-a]pyrazine-3-carbonitrile] |  |  |  | < 30% | < 0.1 µM |  |  |  | ++++ (<50 nM = ++++) | < 30% | < 0.05 µM | +++ (<100 nM = +++)
5 | N#Cc1cnn2cc(-c3cnn([C@H]4CC[C@H](N5CCN(c6ccc(N[C@H]7CCC(=O)NC7=O)cc6F)CC5)CC4)c3)nc(-c3ccc(N4CC5COCC(C4)N5Cc4ccccn4)nc3)c12 (single isomer, unassigned) [Compound 155] |  |  |  | < 30% | < 0.05 µM |  |  |  | ++++ (<50 nM = ++++) | < 30% | < 0.05 µM | ++++ (<50 nM = ++++)
